Test system in one test: not listed separately
Description: DRUGMATRIX: Potassium Channel [KATP] radioligand binding (ligand: [3H] Glyburide). In kind it is cell membranes, Membrane. The following applies: hit-t15; Not Active = under 50% inhibition at 10 µM.
Nitric oxide synthase 1, sequence (P29476 whole entry): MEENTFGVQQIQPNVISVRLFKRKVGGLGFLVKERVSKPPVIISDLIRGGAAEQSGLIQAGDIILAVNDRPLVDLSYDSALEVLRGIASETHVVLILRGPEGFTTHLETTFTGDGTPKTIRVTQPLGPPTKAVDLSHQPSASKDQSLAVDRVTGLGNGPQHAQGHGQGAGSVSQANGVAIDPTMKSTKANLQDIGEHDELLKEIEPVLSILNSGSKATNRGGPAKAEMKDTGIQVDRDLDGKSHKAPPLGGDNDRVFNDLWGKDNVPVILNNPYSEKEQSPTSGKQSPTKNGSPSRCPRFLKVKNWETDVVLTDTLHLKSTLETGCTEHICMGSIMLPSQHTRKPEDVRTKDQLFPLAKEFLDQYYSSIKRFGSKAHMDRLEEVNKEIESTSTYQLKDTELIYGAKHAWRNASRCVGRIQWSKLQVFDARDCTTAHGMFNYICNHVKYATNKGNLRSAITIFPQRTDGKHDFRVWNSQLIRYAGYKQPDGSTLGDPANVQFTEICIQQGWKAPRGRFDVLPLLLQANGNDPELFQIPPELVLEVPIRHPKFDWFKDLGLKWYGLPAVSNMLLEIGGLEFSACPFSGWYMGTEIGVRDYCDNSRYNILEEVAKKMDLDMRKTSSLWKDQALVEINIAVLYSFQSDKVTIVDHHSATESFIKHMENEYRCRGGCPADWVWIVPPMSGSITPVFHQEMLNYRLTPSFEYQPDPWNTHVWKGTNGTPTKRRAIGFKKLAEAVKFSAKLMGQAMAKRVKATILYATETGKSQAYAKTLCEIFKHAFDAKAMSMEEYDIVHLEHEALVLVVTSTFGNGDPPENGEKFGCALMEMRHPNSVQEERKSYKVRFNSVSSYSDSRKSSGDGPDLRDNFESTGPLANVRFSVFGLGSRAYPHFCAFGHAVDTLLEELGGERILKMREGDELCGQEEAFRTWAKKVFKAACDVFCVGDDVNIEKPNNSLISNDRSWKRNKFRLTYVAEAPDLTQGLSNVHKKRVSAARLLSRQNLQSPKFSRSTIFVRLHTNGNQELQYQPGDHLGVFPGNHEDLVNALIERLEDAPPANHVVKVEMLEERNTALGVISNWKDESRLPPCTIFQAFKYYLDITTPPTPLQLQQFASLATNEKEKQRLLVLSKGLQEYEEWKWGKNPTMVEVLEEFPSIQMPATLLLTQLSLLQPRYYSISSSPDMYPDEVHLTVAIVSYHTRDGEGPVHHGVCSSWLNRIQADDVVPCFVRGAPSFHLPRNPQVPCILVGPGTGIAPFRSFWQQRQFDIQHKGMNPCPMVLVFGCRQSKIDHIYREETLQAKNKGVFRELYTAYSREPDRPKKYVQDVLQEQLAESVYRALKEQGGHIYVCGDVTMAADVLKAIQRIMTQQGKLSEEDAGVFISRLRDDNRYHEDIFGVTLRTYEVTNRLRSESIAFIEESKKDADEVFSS
Acetylcholinesterase, sequence (P22303 whole entry): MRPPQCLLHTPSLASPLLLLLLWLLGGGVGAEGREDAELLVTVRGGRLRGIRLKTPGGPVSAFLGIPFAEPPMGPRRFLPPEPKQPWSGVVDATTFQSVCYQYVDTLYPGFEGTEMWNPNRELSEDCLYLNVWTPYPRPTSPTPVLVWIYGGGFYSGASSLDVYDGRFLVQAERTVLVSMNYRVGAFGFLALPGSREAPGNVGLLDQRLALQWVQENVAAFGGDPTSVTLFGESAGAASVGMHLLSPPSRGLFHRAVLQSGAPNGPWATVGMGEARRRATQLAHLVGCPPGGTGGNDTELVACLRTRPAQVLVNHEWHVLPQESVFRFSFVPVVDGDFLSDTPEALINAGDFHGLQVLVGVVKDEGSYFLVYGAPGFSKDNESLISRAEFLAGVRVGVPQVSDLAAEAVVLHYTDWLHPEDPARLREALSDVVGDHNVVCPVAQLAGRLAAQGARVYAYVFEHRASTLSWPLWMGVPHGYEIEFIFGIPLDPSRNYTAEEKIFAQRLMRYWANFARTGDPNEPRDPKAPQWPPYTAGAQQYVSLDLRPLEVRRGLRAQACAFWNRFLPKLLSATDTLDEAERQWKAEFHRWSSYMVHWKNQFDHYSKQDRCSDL
Regarding `CCC[C@@H]1C[C@@H](C(=O)N[C@@H]([C@H]2O[C@H](SC)[C@H](O)[C@@H](O)[C@H]2O)[C@@H](C)O)N(C)C1` [LINCOMYCIN], the IC50 result is “Not Active” and the Ki entry is listed as “Not Active”.
Consider `Clc1ccc(C(c2ccccc2Cl)C(Cl)Cl)cc1` (centres undefined) [MITOTANE], for which the IC50 result is on record as “Not Active” and the Ki result was “Not Active”.

The target of a further test is T1, Substance-K receptor (Homo sapiens, UniProt P21452). Also: in other assays of this panel Not Active means under 50% inhibition at 10 µM.
T1 sequence (P21452 whole entry): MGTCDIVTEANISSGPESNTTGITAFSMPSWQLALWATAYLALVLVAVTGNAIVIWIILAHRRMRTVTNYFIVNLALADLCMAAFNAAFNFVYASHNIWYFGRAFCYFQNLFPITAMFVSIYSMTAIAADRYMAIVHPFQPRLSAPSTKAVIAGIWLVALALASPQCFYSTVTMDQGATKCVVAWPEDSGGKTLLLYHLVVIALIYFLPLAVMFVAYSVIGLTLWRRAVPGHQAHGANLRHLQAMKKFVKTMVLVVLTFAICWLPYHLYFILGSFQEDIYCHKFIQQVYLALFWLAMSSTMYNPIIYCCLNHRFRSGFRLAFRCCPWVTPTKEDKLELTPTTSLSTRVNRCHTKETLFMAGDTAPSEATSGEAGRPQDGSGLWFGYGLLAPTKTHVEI
The format is cell membranes, CHO, Membrane. The following applies: cho.
In the case of `CCC[C@@H]1C[C@@H](C(=O)N[C@@H]([C@H]2O[C@H](SC)[C@H](O)[C@@H](O)[C@H]2O)[C@@H](C)O)N(C)C1` [LINCOMYCIN], the IC50 result is “Not Active”.
With `Clc1ccc(C(c2ccccc2Cl)C(Cl)Cl)cc1` (centres undefined) [MITOTANE], the IC50 result is “Not Active”.

Another test deals with Mitogen-activated protein kinase 3 (Homo sapiens, UniProt P27361). Nature of the test: DRUGMATRIX: Protein Serine/Threonine Kinase, ERK1 enzyme inhibition (substrate: Myelin Basic Protein). The following applies: Not Active = under 50% inhibition at 10 µM. Also noted: species or system Escherichia coli.
Mitogen-activated protein kinase 3, sequence (P27361 whole entry): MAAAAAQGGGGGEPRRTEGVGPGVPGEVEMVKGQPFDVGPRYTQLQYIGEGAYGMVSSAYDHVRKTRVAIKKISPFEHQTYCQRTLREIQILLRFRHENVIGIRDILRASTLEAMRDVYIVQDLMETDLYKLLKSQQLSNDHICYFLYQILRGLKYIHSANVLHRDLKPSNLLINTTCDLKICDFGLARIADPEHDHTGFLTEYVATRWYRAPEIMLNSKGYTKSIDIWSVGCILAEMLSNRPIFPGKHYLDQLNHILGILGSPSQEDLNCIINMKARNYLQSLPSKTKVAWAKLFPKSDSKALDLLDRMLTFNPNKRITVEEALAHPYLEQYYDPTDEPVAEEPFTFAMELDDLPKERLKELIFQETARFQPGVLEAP
With `CCC[C@@H]1C[C@@H](C(=O)N[C@@H]([C@H]2O[C@H](SC)[C@H](O)[C@@H](O)[C@H]2O)[C@@H](C)O)N(C)C1` [LINCOMYCIN], the IC50 result is listed as “Not Active”.
Regarding `Clc1ccc(C(c2ccccc2Cl)C(Cl)Cl)cc1` (centres undefined) [MITOTANE], the IC50 result is “Not Active”.

Another test concerns the target cGMP-specific 3',5'-cyclic phosphodiesterase (Homo sapiens, UniProt O76074). Description: DRUGMATRIX: Phosphodiesterase PDE5 enzyme inhibition (substrate: [3H]cGMP + cGMP). The format is tissue-based, Platelet. The conditions noted are these: platelet; Not Active = under 50% inhibition at 10 µM.
Turning to `CCC[C@@H]1C[C@@H](C(=O)N[C@@H]([C@H]2O[C@H](SC)[C@H](O)[C@@H](O)[C@H]2O)[C@@H](C)O)N(C)C1` [LINCOMYCIN], the IC50 entry was “Not Active”.
On the same count and under the same terms, next, `Clc1ccc(C(c2ccccc2Cl)C(Cl)Cl)cc1` (centres undefined) [MITOTANE]: “Not Active”.

A further test concerns the target T2, C-X-C chemokine receptor type 1 (Homo sapiens, UniProt P25024). Also: in other assays of this panel Not Active means under 50% inhibition at 10 µM.
T2 sequence (P25024 whole entry): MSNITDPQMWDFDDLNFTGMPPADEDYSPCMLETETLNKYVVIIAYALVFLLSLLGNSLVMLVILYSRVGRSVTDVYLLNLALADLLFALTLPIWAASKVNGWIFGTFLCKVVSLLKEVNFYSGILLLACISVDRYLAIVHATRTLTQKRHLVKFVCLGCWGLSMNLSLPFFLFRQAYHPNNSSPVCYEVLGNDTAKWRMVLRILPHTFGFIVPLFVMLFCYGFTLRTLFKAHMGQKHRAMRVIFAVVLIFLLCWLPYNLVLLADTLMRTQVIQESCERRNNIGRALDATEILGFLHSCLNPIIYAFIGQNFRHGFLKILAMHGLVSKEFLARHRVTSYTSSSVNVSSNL
Conditions: not given
Regarding `CCC[C@@H]1C[C@@H](C(=O)N[C@@H]([C@H]2O[C@H](SC)[C@H](O)[C@@H](O)[C@H]2O)[C@@H](C)O)N(C)C1` [LINCOMYCIN], the IC50 entry was “Not Active”.
The same measure, in the same setting: to `Clc1ccc(C(c2ccccc2Cl)C(Cl)Cl)cc1` (centres undefined) [MITOTANE] belongs “Not Active”.

Another test deals with T3, Alpha-2C adrenergic receptor (Homo sapiens, UniProt P18825).
T3 sequence (P18825 whole entry): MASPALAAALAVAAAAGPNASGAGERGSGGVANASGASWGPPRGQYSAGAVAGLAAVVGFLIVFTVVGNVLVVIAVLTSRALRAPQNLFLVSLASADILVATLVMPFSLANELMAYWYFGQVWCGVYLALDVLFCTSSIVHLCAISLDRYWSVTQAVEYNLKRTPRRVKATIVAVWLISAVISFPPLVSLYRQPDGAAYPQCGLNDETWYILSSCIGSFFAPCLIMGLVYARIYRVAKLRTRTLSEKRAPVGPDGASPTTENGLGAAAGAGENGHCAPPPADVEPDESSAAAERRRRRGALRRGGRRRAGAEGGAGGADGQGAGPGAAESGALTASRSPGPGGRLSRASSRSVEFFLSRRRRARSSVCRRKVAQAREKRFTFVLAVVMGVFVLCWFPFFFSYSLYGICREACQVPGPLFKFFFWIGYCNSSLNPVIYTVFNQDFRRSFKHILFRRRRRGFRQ
Nature of the test: DRUGMATRIX: Adrenergic Alpha-2C radioligand binding (ligand: [3H] MK-912). In kind it is cell membranes, Sf9, Membrane. The following applies: sf9.
As for `CCC[C@@H]1C[C@@H](C(=O)N[C@@H]([C@H]2O[C@H](SC)[C@H](O)[C@@H](O)[C@H]2O)[C@@H](C)O)N(C)C1` [LINCOMYCIN], the IC50 result is “Not Active”.
For the molecule `Clc1ccc(C(c2ccccc2Cl)C(Cl)Cl)cc1` (centres undefined) [MITOTANE], the IC50 entry was “Not Active”.

Test system in a further test: not listed separately
Nature of the test: DRUGMATRIX: Platelet-Derived Growth Factor (PDGF) radioligand binding (ligand: [125I] PDGF). The conditions noted are these: nih3t3; Not Active = under 50% inhibition at 10 µM. In kind it is cell-based.
Take `CCC[C@@H]1C[C@@H](C(=O)N[C@@H]([C@H]2O[C@H](SC)[C@H](O)[C@@H](O)[C@H]2O)[C@@H](C)O)N(C)C1` [LINCOMYCIN]: the IC50 result was “Not Active” and the Ki result is on record as “Not Active”.
As to `Clc1ccc(C(c2ccccc2Cl)C(Cl)Cl)cc1` (centres undefined) [MITOTANE], the IC50 entry is given as “Not Active” and the Ki result is reported as “Not Active”.

The target of a further test is T4, B2 bradykinin receptor (Homo sapiens, UniProt P30411). Also: in other assays of this panel Not Active means under 50% inhibition at 10 µM.
T4 sequence (P30411 whole entry): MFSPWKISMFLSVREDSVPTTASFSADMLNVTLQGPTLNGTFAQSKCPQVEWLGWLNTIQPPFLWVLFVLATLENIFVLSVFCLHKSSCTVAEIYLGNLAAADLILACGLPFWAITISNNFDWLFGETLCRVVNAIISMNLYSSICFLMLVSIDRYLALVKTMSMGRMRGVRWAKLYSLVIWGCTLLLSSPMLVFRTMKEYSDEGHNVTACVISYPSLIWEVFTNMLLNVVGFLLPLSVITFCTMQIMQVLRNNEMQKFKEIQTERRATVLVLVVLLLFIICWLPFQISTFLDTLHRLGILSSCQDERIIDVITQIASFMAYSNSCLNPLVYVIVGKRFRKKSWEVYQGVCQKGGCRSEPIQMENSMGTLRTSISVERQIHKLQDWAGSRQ
The format is cell membranes, Membrane. The following applies: chem-1.
As for `CCC[C@@H]1C[C@@H](C(=O)N[C@@H]([C@H]2O[C@H](SC)[C@H](O)[C@@H](O)[C@H]2O)[C@@H](C)O)N(C)C1` [LINCOMYCIN], the IC50 entry is given as “Not Active”.
With `Clc1ccc(C(c2ccccc2Cl)C(Cl)Cl)cc1` (centres undefined) [MITOTANE], the IC50 result is recorded as “Not Active”.

In another test the target is Adenosine receptor A2a (Homo sapiens, UniProt P29274). Nature of the test: DRUGMATRIX: Adenosine A2A radioligand binding (ligand: […]). In kind it is cell membranes, HEK293, Membrane. The conditions noted are these: hek293; Not Active = under 50% inhibition at 10 µM.
Adenosine receptor A2a, sequence (P29274 whole entry): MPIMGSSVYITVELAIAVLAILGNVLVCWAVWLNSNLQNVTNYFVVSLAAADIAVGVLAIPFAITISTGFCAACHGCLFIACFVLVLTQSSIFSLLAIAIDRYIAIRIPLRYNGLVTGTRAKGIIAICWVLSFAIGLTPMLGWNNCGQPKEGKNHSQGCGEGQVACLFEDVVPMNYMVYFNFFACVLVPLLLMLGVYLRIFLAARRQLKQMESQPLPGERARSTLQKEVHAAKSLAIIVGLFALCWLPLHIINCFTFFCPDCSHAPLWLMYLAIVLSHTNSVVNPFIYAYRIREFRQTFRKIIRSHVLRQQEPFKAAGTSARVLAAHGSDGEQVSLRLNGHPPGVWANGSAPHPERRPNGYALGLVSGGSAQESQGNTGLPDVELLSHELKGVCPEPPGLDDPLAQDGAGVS
With `CCC[C@@H]1C[C@@H](C(=O)N[C@@H]([C@H]2O[C@H](SC)[C@H](O)[C@@H](O)[C@H]2O)[C@@H](C)O)N(C)C1` [LINCOMYCIN], the IC50 entry is recorded as “Not Active”.
In the case of `Clc1ccc(C(c2ccccc2Cl)C(Cl)Cl)cc1` (centres undefined) [MITOTANE], the IC50 result was “Not Active”.

A further test has as its target Acetylcholinesterase (Homo sapiens, UniProt P22303). Nature of the test: DRUGMATRIX: Acetylcholinesterase enzyme inhibition (substrate: acetylthiocholine). The format is cell-based, HEK293. The following applies: hek293; Not Active = under 50% inhibition at 10 µM.
Take `CCC[C@@H]1C[C@@H](C(=O)N[C@@H]([C@H]2O[C@H](SC)[C@H](O)[C@@H](O)[C@H]2O)[C@@H](C)O)N(C)C1` [LINCOMYCIN]: the IC50 result was “Not Active”.
On to `Clc1ccc(C(c2ccccc2Cl)C(Cl)Cl)cc1` (centres undefined) [MITOTANE], for which the IC50 entry is “Not Active”.

A further test concerns the target Nitric oxide synthase 1 (Rattus norvegicus, UniProt P29476). In kind it is tissue-based, Cerebellum. Also: in other assays of this panel Not Active means under 50% inhibition at 10 µM.
Conditions: not given
On to `CCC[C@@H]1C[C@@H](C(=O)N[C@@H]([C@H]2O[C@H](SC)[C@H](O)[C@@H](O)[C@H]2O)[C@@H](C)O)N(C)C1` [LINCOMYCIN], for which the IC50 entry is reported as “Not Active”.
Consider `Clc1ccc(C(c2ccccc2Cl)C(Cl)Cl)cc1` (centres undefined) [MITOTANE], for which the IC50 result was “Not Active”.

Test system in a further test: not listed separately
Nature of the test: DRUGMATRIX: GABAA, Chloride Channel, TBOB radioligand binding (ligand: [3H] TBOB). The following applies: Not Active = under 50% inhibition at 10 µM. In kind it is cell membranes, Rattus norvegicus, Wistar, Cerebral cortex, Membrane.
For `CCC[C@@H]1C[C@@H](C(=O)N[C@@H]([C@H]2O[C@H](SC)[C@H](O)[C@@H](O)[C@H]2O)[C@@H](C)O)N(C)C1` [LINCOMYCIN], the IC50 entry is recorded as “Not Active” and the Ki entry is on record as “Not Active”.
On to `Clc1ccc(C(c2ccccc2Cl)C(Cl)Cl)cc1` (centres undefined) [MITOTANE], for which the IC50 result was “Not Active” and the Ki result is given as “Not Active”.

The target of a further test is Cannabinoid receptor 1 (Homo sapiens, UniProt P21554). In kind it is cell membranes, Membrane. The conditions noted are these: chem-1. Also: in other assays of this panel Not Active means under 50% inhibition at 10 µM.
Cannabinoid receptor 1, sequence (P21554 whole entry): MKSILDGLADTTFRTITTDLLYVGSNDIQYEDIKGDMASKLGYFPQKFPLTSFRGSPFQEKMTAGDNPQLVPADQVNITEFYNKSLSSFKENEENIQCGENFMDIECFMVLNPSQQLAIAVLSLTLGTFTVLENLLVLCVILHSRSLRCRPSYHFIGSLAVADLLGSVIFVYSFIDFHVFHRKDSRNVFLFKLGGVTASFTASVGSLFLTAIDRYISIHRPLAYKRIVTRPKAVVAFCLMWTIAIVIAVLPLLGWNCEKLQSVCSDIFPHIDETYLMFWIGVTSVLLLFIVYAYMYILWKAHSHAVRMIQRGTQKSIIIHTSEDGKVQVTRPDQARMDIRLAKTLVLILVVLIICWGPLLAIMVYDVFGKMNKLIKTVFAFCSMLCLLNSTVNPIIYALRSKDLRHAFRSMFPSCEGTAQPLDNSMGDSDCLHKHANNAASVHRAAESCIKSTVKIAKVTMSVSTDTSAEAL
Take `CCC[C@@H]1C[C@@H](C(=O)N[C@@H]([C@H]2O[C@H](SC)[C@H](O)[C@@H](O)[C@H]2O)[C@@H](C)O)N(C)C1` [LINCOMYCIN]: the IC50 result is “Not Active”.
Regarding `Clc1ccc(C(c2ccccc2Cl)C(Cl)Cl)cc1` (centres undefined) [MITOTANE], the IC50 result is “Not Active”.

In the next test the target is Protein phosphatase 3 catalytic subunit alpha (Homo sapiens, UniProt Q08209). Also noted: species or system Escherichia coli.
Conditions: not given
Turning to `CCC[C@@H]1C[C@@H](C(=O)N[C@@H]([C@H]2O[C@H](SC)[C@H](O)[C@@H](O)[C@H]2O)[C@@H](C)O)N(C)C1` [LINCOMYCIN], the IC50 entry is “Not Active”.
In the case of `Clc1ccc(C(c2ccccc2Cl)C(Cl)Cl)cc1` (centres undefined) [MITOTANE], the IC50 entry is “Not Active”.

The values above are taken from ChEMBL document CHEMBL1909046, “DrugMatrix in vitro pharmacology data”.
